Results: patent publication US11008333B2, “Crystalline forms of hydrochloride salts of thienopyrimidine compound” (HANMI PHARM. CO., LTD., priority 2015, dated 2021)
Converted amounts (≈) assume the structure as drawn. Like-named read-outs stand apart in the source and are kept apart here.

What was measured:
[1] = Dynamic vapor sorption (DVS), water absorption / hygroscopicity; type: physicochemical
Procedure: Dynamic vapor sorption (DVS) analysis was performed in a DVS advantage (Surface measurement system, United Kingdom) analyzer at 25° C. with a relative humidity of 0% to 90%. A sample in an amount of 10 mg was placed into a wire-mesh vapor sorption balance pan and then attached to a DVS advantage dynamic vapor sorption balance via surface measurement systems. Until a stable weight was achieved (99.5% completion of steps), the sample was applied to a ramping profile with a relative humidity of 10% to 90% with a 10% increase of the sample while maintaining the sample in each step. Upon completion of the sorption cycle, the sample was dried using the same process while maintaining a relative humidity of […]. The changes in the sample weight during the adsorption/desorption cycle (repeated 3 times) were recorded and the hygroscopicity of the sample was measured.

[2] = Storage under long-term, accelerated and stress testing conditions; type: physicochemical; details: for expected stability: expectation from DVS
[3] = Measurement of water solubility (HPLC); type: physicochemical; details: for pH of solution: solution of the water solubility test, 100 mg/mL in water
Procedure: Specifically, each sample of the polymorphs in an amount of 500 mg was added to 5 mL of water, blended at […] to 25° C. using a Voltamixer, and filtered with a GH Polypro membrane Acrodisc, PALL (pore size: 0.2 μm). The filtrate was diluted with a diluent used for HPLC in a 1:100 ratio to obtain the samples.

[4] = test system: mutant epidermal growth factor receptor tyrosine kinase; details: disclosed in WO 2011/162515; cited from earlier work
[5] = test system: cancer cells induced by a mutation in epidermal growth factor receptor (EGFR) tyrosine kinase; details: disclosed in WO 2011/162515; cited from earlier work
[6] = relative humidity of 10% to 90%, 25° C.
[7] = accelerated condition (40° C., relative humidity 75%)
[8] = long-term storage condition (25° C., relative humidity 60%)
[9] = non-ionic water, 500 mg in 5 mL (conc. of solution 100 mg/mL), 2θ° C. to 25° C., amount dissolved based on compound of Formula 1, HPLC
[10] = relative humidity of 40% or higher
[11] = relative humidity of 10% to 70%
[12] = relative humidity of 70% or higher

C=CC(=O)Nc1cccc(Oc2nc(Nc3ccc(N4CCN(C)CC4)cc3)nc3ccsc23)c1 [Comparative Example 1, N-(3-(2-(4-(4-methylpiperazin-1-yl)phenylamino)thieno[3,2-d]pyrimidin-4-yloxy)phenyl)acrylamide]
level of water absorption (hygroscopicity) in DVS [1, 6]: very high level
expected stability [2, 7]: unstable
expected stability [2, 8]: unstable

C=CC(=O)Nc1cccc(Oc2nc(Nc3ccc(N4CCN(C)CC4)cc3)nc3ccsc23)c1 [Example 1, N-(3-(2-(4-(4-methylpiperazin-1-yl)phenylamino)thieno[3,2-d]pyrimidin-4-yloxy)phenyl)acrylamide]
reversible water sorption and desorption in DVS ([1]; complete range of 0-90% RH): about 3%
level of water absorption (hygroscopicity) in DVS [1, 6]: 2-3%
level of water absorption (hygroscopicity) in DVS ([1]; relative humidity of 10% to 90%, 25° C., listed as ex. 1): very low level of change
water solubility compared with the other forms ([3]; comparison of Table 16): highest water solubility
Solubility [3, 9]: 50390 µg/mL (≈ 104 mM)
pH of solution [3]: 1.7
stability [2, 7]: fully stable
stability [2, 8]: fully stable
stability ([2]; stress testing condition (60° C.)): fully stable

C=CC(=O)Nc1cccc(Oc2nc(Nc3ccc(N4CCN(C)CC4)cc3)nc3ccsc23)c1 [Example 3, N-(3-(2-(4-(4-methylpiperazin-1-yl)phenylamino)thieno[3,2-d]pyrimidin-4-yloxy)phenyl)acrylamide]
level of water absorption (hygroscopicity) in DVS ([1]; relative humidity of 10% to 40%): very low level
level of water absorption (hygroscopicity) in DVS [1, 10]: about 9%
level of water absorption (hygroscopicity) in DVS ([1]; relative humidity of 40% or higher, listed as ex. 3): about 9%
Solubility [3, 9]: 7760 µg/mL (≈ 15.9 mM)
pH of solution [3]: 2.1

C=CC(=O)Nc1cccc(Oc2nc(Nc3ccc(N4CCN(C)CC4)cc3)nc3ccsc23)c1 [Example 4, N-(3-(2-(4-(4-methylpiperazin-1-yl)phenylamino)thieno[3,2-d]pyrimidin-4-yloxy)phenyl)acrylamide]
level of water absorption (hygroscopicity) in DVS ([1]; relative humidity of 10% to 30%): very high
level of water absorption (hygroscopicity) in DVS ([1]; relative humidity of 10% to 30%, listed as ex. 4): about 6%
level of water absorption (hygroscopicity) in DVS [1, 10]: very weak
level of water absorption (hygroscopicity) in DVS ([1]; relative humidity of 40% or higher, listed as ex. 4): very low and constant level
Solubility [3, 9]: 10660 µg/mL (≈ 21.9 mM)
pH of solution [3]: 1.7

C=CC(=O)Nc1cccc(Oc2nc(Nc3ccc(N4CCN(C)CC4)cc3)nc3ccsc23)c1 [Example 5, N-(3-(2-(4-(4-methylpiperazin-1-yl)phenylamino)thieno[3,2-d]pyrimidin-4-yloxy)phenyl)acrylamide]
level of water absorption (hygroscopicity) in DVS [1, 11]: very low
level of water absorption (hygroscopicity) in DVS ([1]; relative humidity of 10% to 70%, listed as ex. 5): very low level
level of water absorption (hygroscopicity) in DVS [1, 12]: about 7%
level of water absorption (hygroscopicity) in DVS ([1]; relative humidity of 70% or higher, listed as ex. 5): about 7%
Solubility [3, 9]: 420 µg/mL (≈ 0.863 mM)
pH of solution [3]: 4.7

C=CC(=O)Nc1cccc(Oc2nc(Nc3ccc(N4CCN(C)CC4)cc3)nc3ccsc23)c1 [Example 6, N-(3-(2-(4-(4-methylpiperazin-1-yl)phenylamino)thieno[3,2-d]pyrimidin-4-yloxy)phenyl)acrylamide]
level of water absorption (hygroscopicity) in DVS [1, 6]: about 2%
level of water absorption (hygroscopicity) in DVS ([1]; relative humidity of 10% to 90%, 25° C., listed as ex. 6): about 2%
Solubility [3, 9]: 570 µg/mL (≈ 1.17 mM)
pH of solution [3]: 4.9

C=CC(=O)Nc1cccc(Oc2nc(Nc3ccc(N4CCN(C)CC4)cc3)nc3ccsc23)c1 [Example 7, N-(3-(2-(4-(4-methylpiperazin-1-yl)phenylamino)thieno[3,2-d]pyrimidin-4-yloxy)phenyl)acrylamide]
level of water absorption (hygroscopicity) in DVS [1, 11]: very low
level of water absorption (hygroscopicity) in DVS ([1]; relative humidity of 10% to 90%, 25° C., listed as ex. 7): about 14%
level of water absorption (hygroscopicity) in DVS [1, 12]: about 14%

C=CC(=O)Nc1cccc(Oc2nc(Nc3ccc(N4CCN(C)CC4)cc3)nc3ccsc23)c1 [Formula 1 (amorphous free base), N-(3-(2-(4-(4-methylpiperazin-1-yl)phenylamino)thieno[3,2-d]pyrimidin-4-yloxy)phenyl)acrylamide]
inhibitory activity for mutant EGFR tyrosine kinase [4]: selective inhibitory activity
Solubility [3, 9]: 0.1 µg/mL
pH of solution [3]: 7.3
Solubility ([3]; water, 20 °C, water, thermodynamic from solid, amorphous free base, read-out: water solubility): < 0.1 µg/mL
inhibitory activity against growth of cancer cells induced by EGFR mutation, and drug resistance thereof [5]: selective and effective inhibitory activity
